According to ChEMBL document CHEMBL1201862, “PubChem BioAssay data set” (2004):
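Assay format: 96-well plates, 48-hour exposure. The concentration for 50% growth inhibition is given as GI50.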 Active and inactive are the calls of the source. Rule as the data show it: active = GI50 up to about 1.1 µM and inactive = higher.

Assays:
Assay in all cases: NCI anticancer screen, dose series, 48 h
DMS-273 = test system: DMS-273
OVCAR-4 = test system: OVCAR-4
ACHN = test system: ACHN
COLO 205 = test system: COLO 205
HOP-92 = test system: HOP-92
UACC-257 = test system: UACC-257
U-251 = test system: U-251
DMS-114 = test system: DMS-114
HCT-116 = test system: HCT-116
SK-MEL-28 = test system: SK-MEL-28
K562 = test system: K562
SF-295 = test system: SF-295
LXFL 529 = test system: LXFL 529
M14 = test system: M14
Malme-3M = test system: Malme-3M
NCI-H23 = test system: NCI-H23
SNB-19 = test system: SNB-19
SNB-75 = test system: SNB-75
HOP-18 = test system: HOP-18
UO-31 = test system: UO-31
OVCAR-8 = test system: OVCAR-8
SN12C = test system: SN12C
SK-OV-3 = test system: SK-OV-3
OVCAR-3 = test system: OVCAR-3
HL-60 = test system: HL-60
XF498 = test system: XF498
EKVX = test system: EKVX
MOLT-4 = test system: MOLT-4
HT-29 = test system: HT-29
786-0 = test system: 786-0
CCRF-CEM = test system: CCRF-CEM
SNB-78 = test system: SNB-78
NCI-H226 = test system: NCI-H226
SF-268 = test system: SF-268
RPMI-8226 = test system: RPMI-8226
A549 = test system: A549
SK-MEL-5 = test system: SK-MEL-5
RXF 393 = test system: RXF 393
HCC 2998 = test system: HCC 2998
SK-MEL-2 = test system: SK-MEL-2
HOP-62 = test system: HOP-62
TK-10 = test system: TK-10
CAKI-1 = test system: CAKI-1
M19-MEL = test system: M19-MEL
A498 = test system: A498
NCI-H460 = test system: NCI-H460
LOX IMVI = test system: LOX IMVI
KM-20L2 = test system: KM-20L2
NCI-H522 = test system: NCI-H522
HCT-15 = test system: HCT-15
KM12 = test system: KM12
SF-539 = test system: SF-539
OVCAR-5 = test system: OVCAR-5
IGROV-1 = test system: IGROV-1
UACC-62 = test system: UACC-62
SW-620 = test system: SW-620

For `c1ccc(-c2nc3ccccc3nc2SCc2cccnc2)cc1`, the GI50 (DMS-273) was > 100 µM (inactive), the GI50 (OVCAR-4) was > 100 µM (inactive) and the GI50 (ACHN) was > 100 µM (inactive). The GI50 (COLO 205) was > 100 µM (inactive), the GI50 (HOP-92) was > 100 µM (inactive) and the GI50 (UACC-257) was > 100 µM (inactive). For the same compound, the GI50 (U-251) was > 100 µM (inactive), the GI50 (DMS-114) was > 100 µM (inactive) and the GI50 (HCT-116) was > 100 µM (inactive). The GI50 (SK-MEL-28) was > 100 µM (inactive), the GI50 (K562) was > 100 µM (inactive) and the GI50 (SF-295) was > 100 µM (inactive). For the same compound, the GI50 (LXFL 529) was > 100 µM (inactive), the GI50 (M14) was > 100 µM (inactive) and the GI50 (Malme-3M) was > 100 µM (inactive). The GI50 (NCI-H23) was > 100 µM (inactive), the GI50 (SNB-19) was > 100 µM (inactive) and the GI50 (SNB-75) was > 100 µM (inactive). The GI50 (HOP-18) was 14.4 µM (inactive), the GI50 (UO-31) was 56.6 µM (inactive) and the GI50 (OVCAR-8) was > 100 µM (inactive). For the same compound, the GI50 (SN12C) was > 100 µM (inactive), the GI50 (SK-OV-3) was > 100 µM (inactive) and the GI50 (OVCAR-3) was > 100 µM (inactive). For the same compound, the GI50 (HL-60) was > 100 µM (inactive), the GI50 (XF498) was > 100 µM (inactive) and the GI50 (EKVX) was > 100 µM (inactive). The GI50 (MOLT-4) was > 100 µM (inactive), the GI50 (HT-29) was > 100 µM (inactive) and the GI50 (786-0) was > 100 µM (inactive). The GI50 (CCRF-CEM) was > 100 µM (inactive), the GI50 (SNB-78) was > 100 µM (inactive) and the GI50 (NCI-H226) was > 100 µM (inactive). The GI50 (SF-268) was > 100 µM (inactive), the GI50 (RPMI-8226) was > 100 µM (inactive) and the GI50 (A549) was > 100 µM (inactive).

In the case of `NC(=O)c1ccccc1NC(=O)C(=O)C(C(=O)c1ccc2ccccc2c1)C1OC(=O)c2ccccc21` (centres undefined), the GI50 (DMS-273) was 12.5 µM (inactive), the GI50 (OVCAR-4) was 11.6 µM (inactive) and the GI50 (ACHN) was > 100 µM (inactive). For the same compound, the GI50 (COLO 205) was 11.7 µM (inactive), the GI50 (HOP-92) was 6.79 µM (inactive) and the GI50 (SK-MEL-5) was 12 µM (inactive). The GI50 (RXF 393) was 2.09 µM (inactive), the GI50 (UACC-257) was 13.3 µM (inactive) and the GI50 (HCC 2998) was 7.1 µM (inactive). The GI50 (SK-MEL-2) was 14.8 µM (inactive), the GI50 (U-251) was 4.86 µM (inactive) and the GI50 (HOP-62) was 10.2 µM (inactive). For the same compound, the GI50 (HCT-116) was 9.71 µM (inactive), the GI50 (TK-10) was 22.6 µM (inactive) and the GI50 (SK-MEL-28) was 7.23 µM (inactive). For the same compound, the GI50 (K562) was 16.5 µM (inactive), the GI50 (LXFL 529) was 8.17 µM (inactive) and the GI50 (M14) was 14.3 µM (inactive). The GI50 (CAKI-1) was 7.67 µM (inactive), the GI50 (M19-MEL) was 11.1 µM (inactive) and the GI50 (Malme-3M) was 10.4 µM (inactive). The GI50 (A498) was > 100 µM (inactive), the GI50 (NCI-H23) was 9.66 µM (inactive) and the GI50 (SNB-19) was 4.04 µM (inactive). The GI50 (NCI-H460) was > 100 µM (inactive), the GI50 (LOX IMVI) was 11.3 µM (inactive) and the GI50 (KM-20L2) was 28.3 µM (inactive). For the same compound, the GI50 (NCI-H522) was 14 µM (inactive), the GI50 (HCT-15) was 16.7 µM and the GI50 (KM12) was 18.9 µM (inactive). For the same compound, the GI50 (SNB-75) was 8.15 µM (inactive), the GI50 (HOP-18) was 1.34 µM (inactive) and the GI50 (UO-31) was 13.2 µM (inactive). For the same compound, the GI50 (OVCAR-8) was 7.66 µM (inactive), the GI50 (SN12C) was 15.9 µM (inactive) and the GI50 (SK-OV-3) was 14.6 µM (inactive). The GI50 (SF-539) was 4.6 µM (inactive), the GI50 (OVCAR-3) was 11.7 µM (inactive) and the GI50 (XF498) was 2.59 µM (inactive). For the same compound, the GI50 (EKVX) was 26.5 µM (inactive), the GI50 (OVCAR-5) was 24 µM (inactive) and the GI50 (MOLT-4) was 3.49 µM (inactive). The GI50 (HT-29) was 27.8 µM (inactive), the GI50 (786-0) was 6.25 µM (inactive) and the GI50 (CCRF-CEM) was 10.3 µM (inactive). For the same compound, the GI50 (SNB-78) was 10.5 µM (inactive), the GI50 (NCI-H226) was 2.85 µM (inactive) and the GI50 (IGROV-1) was 14.8 µM (inactive). For the same compound, the GI50 (SF-268) was 4.48 µM (inactive), the GI50 (UACC-62) was 10.4 µM (inactive) and the GI50 (RPMI-8226) was 8.91 µM (inactive). The GI50 (SW-620) was 8.24 µM (inactive) and the GI50 (A549) was 16.3 µM (inactive).
